Measurements reported in patent US12263172B2, “Toll-like receptor agonists for use in the treatment of hepatitis b” (priority 2019, dated 2025).

How the values were obtained:
[1] = target: T1, organic ion transporter 2 (OCT2) (Homo sapiens, UniProt O15244); assay: OCT2 inhibition in vitro; format: in vitro ADME
T1 sequence (O15244 1-555): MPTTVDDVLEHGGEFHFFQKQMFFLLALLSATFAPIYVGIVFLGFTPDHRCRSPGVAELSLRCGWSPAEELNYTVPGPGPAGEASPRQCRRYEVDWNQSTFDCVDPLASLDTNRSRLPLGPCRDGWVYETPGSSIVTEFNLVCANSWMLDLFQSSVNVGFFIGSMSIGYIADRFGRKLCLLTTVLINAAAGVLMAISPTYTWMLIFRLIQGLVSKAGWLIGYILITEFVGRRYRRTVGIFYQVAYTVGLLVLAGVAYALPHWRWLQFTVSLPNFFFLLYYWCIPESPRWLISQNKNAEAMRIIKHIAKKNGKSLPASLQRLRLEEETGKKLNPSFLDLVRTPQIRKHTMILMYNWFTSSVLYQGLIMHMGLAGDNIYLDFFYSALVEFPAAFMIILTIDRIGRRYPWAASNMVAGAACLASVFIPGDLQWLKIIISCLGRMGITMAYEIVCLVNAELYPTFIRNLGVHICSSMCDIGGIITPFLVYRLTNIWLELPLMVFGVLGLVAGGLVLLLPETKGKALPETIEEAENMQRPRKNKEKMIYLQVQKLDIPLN
Excerpt: (§1) Exposure increased more than dose-proportionally at low doses. Variability in exposure was high. • In vitro plasma protein binding was between 79.6% and 94.2% in animals and humans. Volume of distribution after intravenous dosing was high. […] Main metabolic pathways were oxygenation, hydrogenation, dehydrogenation, dealkylation, acetylation, glucuronidation, and/or glutathione conjugation. • In rats, >80% of drug-related material was found in feces, 11% to 20% in bile, and <4% in urine. […] There were no effects on embryofetal development up to 1 mg/kg/dose in rats and 30 mg/kg/dose in rabbits.

[2] = cardiovascular safety pharmacology in monkeys; format: in vivo; conditions: secondary to an increase in body temperature
Excerpt: as §1

[3] = tested on: cytokines and ISGs (ISG15, MX1, OAS1); assay: Phase 1 single oral dose pharmacodynamics (serum cytokines, whole blood ISGs) in healthy adults; format: in vivo, human
Procedure: IFN-α was assessed by an enzyme-linked immunosorbent assay; 13 other cytokines (granulocyte colony stimulating factor [GCSF], granulocyte macrophage colony stimulating factor [GMCSF], IFN-γ, IFN-γ-induced protein 10 [IP-10], interleukin [IL] 1β, IL-1 receptor antagonist [IL-1 RA], IL-10, IL-12 subunit P40, IL-6, IL-8, macrophage inflammatory protein 1β [MIP-1β], monocyte chemotactic protein 1 [MCP-1], and tumour necrosis factor [TNF]) were analysed by the appropriate Luminex assays. ISG expression analysis was conducted for three genes, ISG15, MX1 and OAS1 using quantitative polymerase chain reaction. Descriptive statistics were used to summarise PD parameters over time, and relative fold-changes from baseline values were calculated. Serum levels of IFN-α were measured by ELISA. Serum levels of IP-10, IFN-γ, TNF-α, IL-12 (subunit P40), IL-6, IL-1β, IL-1RA, IL-18, MCP-1, MIP-1β, G-CSF, GM-CSF, IL-10, IL-15 were measured by Luminex xMAP technology. The LLOQ for IFN-α was determined at 12.5 pg/mL and at 25 pg/mL for all other cytokines measured. Fold changes for each of the cytokines were calculated compared to predose values or LLOQ-1 values if predose values were below LLOQ. IFN-stimulated gene (ISG) expression analysis was conducted for 3 genes, ISG15, MX1, and OAS1, using quantitative polymerase chain reaction (qPCR) on collected whole blood samples. For the ISGs, relative fold changes from baseline were calculated according to the delta delta Cycle threshold (Ct) method (2^[Delta Delta Ct]). Assessments were done for Part 1 predose and postdose: 1.5 hours, 6 hours, 12 hours (Day 1), 24 hours (day 2), 48 hours (Day 3), 96 hours (Day 5), follow-up Week 2. For the Part 2, assessments were done predose and post the first and fourth dose: 2 hours, 4 hours, 12 hours, 24 hours, 48 hours, 96 hours and one week follow-up; and post the second and third doses: 12 hours and 48 hours.

[4] = single dose 0.6 mg, 12 hours post dosing

Structure (SMILES): CCCCOc1nc(N)c2[nH]cc(Cc3ccc(CN4CCCC4)cc3)c2n1 [Compound 4]
- IC50 [1]: 4.97 µM
- heart rate and arterial blood pressure [2]: transient increase in heart rate and arterial blood pressure
- number of the 14 cytokines evaluated that increased ≥2-fold versus baseline (IFN-α, IP-10, IL-1 RA, MCP-1, IL-6) ([3]; single dose): 5
- time within which cytokine levels and ISG expression peaked ([3]; single dose): 12 to 24 h
- induction of ISGs or cytokines ([3]; single dose 0.2 mg): No relevant induction of ISGs or cytokines
- participants with ≥2 relative fold increase in ISG15 expression from baseline in the first 96 hours ([3]; single dose 0.2 mg fasted): 0 n (%)
- participants with ≥2 relative fold increase in MX1 expression from baseline in the first 96 hours ([3]; single dose 0.2 mg fasted): 1 (20.0%) n (%)
- participants with ≥2 relative fold increase in OAS1 expression from baseline in the first 96 hours ([3]; single dose 0.2 mg fasted): 0 n (%)
- subjects with ≥2-fold change from baseline in GCSF within 96 hours ([3]; single dose 0.2 mg fasted): 0 n (%)
- subjects with ≥2-fold change from baseline in GMCSF within 96 hours ([3]; single dose 0.2 mg fasted): 0 n (%)
- subjects with ≥2-fold change from baseline in IFN-α within 96 hours ([3]; single dose 0.2 mg fasted): 0 n (%)
- subjects with ≥2-fold change from baseline in IFN-γ within 96 hours ([3]; single dose 0.2 mg fasted): 0 n (%)
- subjects with ≥2-fold change from baseline in IL-1RA within 96 hours ([3]; single dose 0.2 mg fasted): 0 n (%)
- subjects with ≥2-fold change from baseline in IL-1β within 96 hours ([3]; single dose 0.2 mg fasted): 0 n (%)
- subjects with ≥2-fold change from baseline in IL-6 within 96 hours ([3]; single dose 0.2 mg fasted): 1 (20.0%) n (%)
- subjects with ≥2-fold change from baseline in IL-8 within 96 hours ([3]; single dose 0.2 mg fasted): 0 n (%)
- subjects with ≥2-fold change from baseline in IL-10 within 96 hours ([3]; single dose 0.2 mg fasted): 0 n (%)
- subjects with ≥2-fold change from baseline in IL-12 subunit P40 within 96 hours ([3]; single dose 0.2 mg fasted): 0 n (%)
- subjects with ≥2-fold change from baseline in IP-10 within 96 hours ([3]; single dose 0.2 mg fasted): 0 n (%)
- subjects with ≥2-fold change from baseline in MCP-1 within 96 hours ([3]; single dose 0.2 mg fasted): 0 n (%)
- subjects with ≥2-fold change from baseline in MIP-1β within 96 hours ([3]; single dose 0.2 mg fasted): 0 n (%)
- subjects with ≥2-fold change from baseline in TNF-α within 96 hours ([3]; single dose 0.2 mg fasted): 0 n (%)
- treated subjects with ≥2-fold increase from baseline for all 3 ISGs within the first 96 hours ([3]; single dose 0.6 mg): Five of 6
- participants with ≥2 relative fold increase in ISG15 expression from baseline in the first 96 hours ([3]; single dose 0.6 mg fasted): 5 (83.3%) n (%)
- participants with ≥2 relative fold increase in MX1 expression from baseline in the first 96 hours ([3]; single dose 0.6 mg fasted): 5 (83.3%) n (%)
- participants with ≥2 relative fold increase in OAS1 expression from baseline in the first 96 hours ([3]; single dose 0.6 mg fasted): 5 (83.3%) n (%)
- subjects with ≥2-fold change from baseline in GCSF within 96 hours ([3]; single dose 0.6 mg fasted): 1 (16.7%) n (%)
- subjects with ≥2-fold change from baseline in GMCSF within 96 hours ([3]; single dose 0.6 mg fasted): 0 n (%)
- subjects with ≥2-fold change from baseline in IFN-α within 96 hours ([3]; single dose 0.6 mg fasted): 0 n (%)
- subjects with ≥2-fold change from baseline in IFN-γ within 96 hours ([3]; single dose 0.6 mg fasted): 0 n (%)
- subjects with ≥2-fold change from baseline in IL-1RA within 96 hours ([3]; single dose 0.6 mg fasted): 0 n (%)
- subjects with ≥2-fold change from baseline in IL-1β within 96 hours ([3]; single dose 0.6 mg fasted): 0 n (%)
- subjects with ≥2-fold change from baseline in IL-6 within 96 hours ([3]; single dose 0.6 mg fasted): 0 n (%)
- subjects with ≥2-fold change from baseline in IL-8 within 96 hours ([3]; single dose 0.6 mg fasted): 0 n (%)
- subjects with ≥2-fold change from baseline in IL-10 within 96 hours ([3]; single dose 0.6 mg fasted): 0 n (%)
- subjects with ≥2-fold change from baseline in IL-12 subunit P40 within 96 hours ([3]; single dose 0.6 mg fasted): 0 n (%)
- subjects with ≥2-fold change from baseline in MIP-1β within 96 hours ([3]; single dose 0.6 mg fasted): 0 n (%)
- subjects with ≥2-fold change from baseline in TNF-α within 96 hours ([3]; single dose 0.6 mg fasted): 0 n (%)
- maximum concentration of IP-10 [3, 4]: 1,322.0 pg/mL
- maximum concentration of MCP-1 [3, 4]: 878.2 pg/mL
- increased expression of cytokines and ISGs, fed versus fasted state ([3]; single dose 1.25 mg): less frequently observed in the 1.25 mg fed state than in the fasted state
- treated subjects with ≥2-fold increase from baseline for all 3 ISGs within the first 96 hours ([3]; single dose 1.25 mg): all treated subjects
- participants with ≥2 relative fold increase in ISG15 expression from baseline in the first 96 hours ([3]; single dose 1.25 mg fasted): 8 (100%) n (%)
- participants with ≥2 relative fold increase in MX1 expression from baseline in the first 96 hours ([3]; single dose 1.25 mg fasted): 8 (100%) n (%)
- participants with ≥2 relative fold increase in OAS1 expression from baseline in the first 96 hours ([3]; single dose 1.25 mg fasted): 8 (100%) n (%)
- subjects with IFN-α levels 100 pg/mL coinciding with flu-like AEs and low lymphocytes ([3]; single dose 1.25 mg fasted): 3 of 8
- subjects with ≥2-fold change from baseline in GCSF within 96 hours ([3]; single dose 1.25 mg fasted): 1 (12.5%) n (%)
- subjects with ≥2-fold change from baseline in GMCSF within 96 hours ([3]; single dose 1.25 mg fasted): 0 n (%)
- subjects with ≥2-fold change from baseline in IFN-γ within 96 hours ([3]; single dose 1.25 mg fasted): 2 (25.0%) n (%)
- subjects with ≥2-fold change from baseline in IL-1β within 96 hours ([3]; single dose 1.25 mg fasted): 0 n (%)
- subjects with ≥2-fold change from baseline in IL-6 within 96 hours ([3]; single dose 1.25 mg fasted): 1 (12.5%) n (%)
- subjects with ≥2-fold change from baseline in IL-8 within 96 hours ([3]; single dose 1.25 mg fasted): 0 n (%)
- subjects with ≥2-fold change from baseline in IL-10 within 96 hours ([3]; single dose 1.25 mg fasted): 0 n (%)
- subjects with ≥2-fold change from baseline in IL-12 subunit P40 within 96 hours ([3]; single dose 1.25 mg fasted): 0 n (%)
- subjects with ≥2-fold change from baseline in MIP-1β within 96 hours ([3]; single dose 1.25 mg fasted): 0 n (%)
- subjects with ≥2-fold change from baseline in TNF-α within 96 hours ([3]; single dose 1.25 mg fasted): 0 n (%)
- treated females with 2-fold increase in IFN-α ([3]; single dose 1.25 mg fasted): 2 of the 3
- treated male subjects with 2-fold increase in IFN-α ([3]; single dose 1.25 mg fasted): 2 out of 5
- IFNα levels in subjects with increase, range ([3]; single dose 1.25 mg fasted, 4/8 subjects): 63 to 533 pg/mL
- increase in IFN-α in the fed state among the 3 subjects with increase in the fasted state ([3]; single dose 1.25 mg fed): none showed an increase in IFN-α in the fed state
- treated male subjects with ≥2-fold increase in IFN-α ([3]; single dose 1.8 mg): 1 of the 5
- treated subjects with ≥2-fold increase from baseline for all 3 ISGs within the first 96 hours ([3]; single dose 1.8 mg): all treated subjects
- participants with ≥2 relative fold increase in ISG15 expression from baseline in the first 96 hours ([3]; single dose 1.8 mg fasted): 6 (100%) n (%)
- participants with ≥2 relative fold increase in MX1 expression from baseline in the first 96 hours ([3]; single dose 1.8 mg fasted): 6 (100%) n (%)
- participants with ≥2 relative fold increase in OAS1 expression from baseline in the first 96 hours ([3]; single dose 1.8 mg fasted): 6 (100%) n (%)
- subjects with IFN-α levels 100 pg/mL coinciding with flu-like AEs and low lymphocytes ([3]; single dose 1.8 mg fasted): 2 of 6
- subjects with ≥2-fold change from baseline in GCSF within 96 hours ([3]; single dose 1.8 mg fasted): 0 n (%)
- subjects with ≥2-fold change from baseline in GMCSF within 96 hours ([3]; single dose 1.8 mg fasted): 0 n (%)
- subjects with ≥2-fold change from baseline in IFN-γ within 96 hours ([3]; single dose 1.8 mg fasted): 2 (33.3%) n (%)
- subjects with ≥2-fold change from baseline in IL-1β within 96 hours ([3]; single dose 1.8 mg fasted): 0 n (%)
- subjects with ≥2-fold change from baseline in IL-6 within 96 hours ([3]; single dose 1.8 mg fasted): 1 (16.7%) n (%)
- subjects with ≥2-fold change from baseline in IL-8 within 96 hours ([3]; single dose 1.8 mg fasted): 0 n (%)
- subjects with ≥2-fold change from baseline in IL-10 within 96 hours ([3]; single dose 1.8 mg fasted): 0 n (%)
- subjects with ≥2-fold change from baseline in IL-12 subunit P40 within 96 hours ([3]; single dose 1.8 mg fasted): 0 n (%)
- subjects with ≥2-fold change from baseline in MIP-1β within 96 hours ([3]; single dose 1.8 mg fasted): 0 n (%)
- subjects with ≥2-fold change from baseline in TNF-α within 96 hours ([3]; single dose 1.8 mg fasted): 0 n (%)
- time within which cytokine levels and ISG expression returned to baseline ([3]; single dose, post-administration): 48 to 96 h
- time of return to baseline after dosing ([3]; two highest fasted dose groups): approximately 96 hours
